Laboratory results as given in US20180200279A1, “INHIBITION OF HSV-1-ASSOCIATED CORNEAL NEOVASCULARIZATION USING INHIBITORS OF CYCLIN-DEPENDENT KINASE 9” (XAVIER UNIVERSITY OF LOUISIANA, priority 2014, published 2018).

What was measured:
HSV-1 = test: In vitro viral inhibition (plaque) assay in CV-1 cells; format: cell-based
Method: Numbers of plaque-forming units (PFU) were determined in a standard plaque assay procedure using CV-1 cells.
The HSV-1 strain employed was 17 syn+. Before inoculation, numbers of plaque-forming units (PFU) were determined in a standard plaque assay procedure using CV-1 cells. Pooled primary human umbilical vein endothelial cells (HUVEC) were obtained from Lonza (Basel, Switzerland) and were cultured in Medium 199 (Life Technologies, Carlsbad, Calif.) supplemented with 20% heat-inactivated FBS, penicillin G (100 U/ml), streptomycin ([…]), 2 mM L-glutamine and 1:100 endothelial cell growth supplement (ECGS, BD Biosciences, Bedford, Mass.) on tissue culture plates coated with 0.2% gelatin up to passage 6. Cells were sub-passaged or harvested when they reached ˜80% confluence. For periods of serum-deprivation, HUVEC were incubated for 4 or 16 hours in serum-starvation medium (SSM) containing Medium 199 without phenol red or ECGS but containing 0.5% FBS unless otherwise indicated. In vitro viral inhibition assays with CV-1 cells were performed as previously described (Gong E Y. Methods for screening and profiling inhibitors of herpes simplex viruses. Methods Mol Biol. 1030:303-313. 2013).

[1] = tested on: corneal neovascularization due to alkali burn; test: Corneal neovascularization due to chemical (NaOH) burn in mice; format: in vivo, Balb C mice; conditions: 0.01% FP 5× daily; four days post injury; 0.15N NaOH for 15 seconds
Method: Following chemical treatment of mouse eyes with 0.15N NaOH, control and treated eyes were scored for neovascularization using the formula A=(C×0.4×L×pi)/2; where C=clock hours of neovascularization; 30° arc is 1 (360° L is the length of the longest neovessel, and A is the area of neovascularization. Animals were scored using a slit-lamp microscope, and images representative of each group were taken. One day post injury, flavopirodol reduced neovascularization to the level observed in undamaged and in damaged but prednisone-treated eyes.
To determine whether FP would reduce corneal neovascularization due to chemical injury in a mouse model system, female Balb C mice (7 per group) were treated in their right eyes with 0.15N NaOH for 15 seconds and the left eye was not treated with NaOH. […] Neovascularization was scored using the formula A=(C×0.4×L×pi)/2; where C=clock hours of neovascularization; 30° arc is 1 (360° L is the length of the longest neovessel, and A is the area of neovascularization. Animals were scored in a masked fashion using a slit-lamp microscope, and images representative of each group were taken. The longest possible length of a neovessel is 1.6 mm and the greatest possible arc is 12/12 hours.

HUVEC [2] = test: Endothelial cell transwell migration assay; format: cell-based, human; conditions: 16 hours
Method: (§1) Migration/invasion assays were performed using 24-well, 8-μm pore size BD Biocoat Matrigel migration chambers according to the manufacturer's instructions (BD Biosciences, San Jose, Calif.). […] Cells were allowed to migrate for 16 hours at 37° C. Following incubation, cotton swabs were used to remove the cells on the top surface of the membrane, and cells on the bottom side of the membrane were fixed with 4% formaldehyde for 30 min, washed 3-5 times with PBS, and then stained with 10 μM Calcein AM (migration) or 10 μM Celltracker green-labeled (invasion). Migrating or invading cells from three repeats in two independent experiments were then counted using an inverted microscope. Data are expressed as mean percent migration and mean percent invading cells compared with untreated cells±SEM.
Cell migration induced by chemoattractant angiogenic factors such as bFGF and VEGF is an important step in the angiogenic process. […] Data presented as percent fluorescence normalized to control untreated cells (100% migration).

HUVEC [3] = test: In vitro tubule formation assay; format: cell-based, human; conditions: 25 ng/mL bFGF and VEGF
Method: The number of circular tubular structures formed by HUVEC under conditions of serum starvation followed by treatment with 25 ng/mL bFGF and VEGF and with 0-200 nM FP were quantitatively analyzed. Manual counting at low power fields was used to quantitate tubular structures and percentage of inhibition was expressed using VEGF control wells as 100%.
Growth factor-reduced Geltrex (Life Technologies, Grand Island, N.Y.) was thawed overnight on ice. Each well of 96-well plated was coated at […] with 50 μL Geltrex and incubated at 37° C. for 30 min. […] After 12-16 hours, tubule formation was assessed with an inverted photomicroscope and the images were photographed using Olympus U-RLF-T microscope. Manual counting at low power fields was used to quantitate tubular structures and percentage of inhibition was expressed using VEGF control wells as 100%. Results represent one triplicate repeat of three independent experiments with similar results.
Following migration from the vessel of origin and invasion through the ECM, ECs form capillary tubules. […] The number of circular nodes surrounded by tubular structures was quantitatively analyzed in a masked fashion.

HUVEC [4] = test: Endothelial cell Matrigel transwell invasion assay; format: cell-based, human; conditions: 25 ng/mL VEGF and bFGF
Method: After 12-16 hours, tubules were counted at low magnification and percentage of inhibition was expressed using VEGF control wells as 100%.
as §1
In addition to migration, new blood vessel formation requires that endothelial cells invade through extracellular matrix (ECM) surrounding the existing vasculature. Inhibition of invasion therefore inhibits angiogenesis. […] Celltracker green-labeled HUVEC that successfully degraded the Matrigel and crossed into the lower chamber containing 25 ng/mL VEGF and bFGF in the presence or absence of FP were counted and expressed as a percent of untreated control cells (FIG. 2B).

global transcription = conditions: low-dose FP; Lu et al. Mol Cancer Ther (2004); cited from earlier work
[5] = Ocular safety and tolerability of the formulation, rabbit eyes; format: in vivo; conditions: dose and frequency of the HSV-1 corneal neovascularization study
Method: This was assessed with the dose and frequency that was used in the chemotherapeutic study of HSV-1 corneal neovascularization. FIG. 1A presents the results of slit-lamp examination (SLE) scores of the corneas of the four treatment groups beginning on post-inoculation day 2 and continuing to 25 days following infection.

Structure (SMILES): CN1CC[C@H](c2c(O)cc(O)c3c(=O)cc(-c4ccccc4Cl)oc23)[C@H](O)C1 [flavopiridol]
- concentration at which HSV-1 replication was significantly inhibited (HSV-1): 250 nM
- IC50 (HSV-1; Human alphaherpesvirus 1, read-out: average IC50 of HSV-1 replication): 0.1 µM
- corneal neovascularization after alkali burn (slit-lamp area score) [1]: reduced neovascularization due to alkali burn to the level observed in undamaged and in damaged but prednisone-treated eyes
- percent migration normalized to untreated control cells (100%) (HUVEC [2]; 100 nM flavopiridol): 74.99%±2.35
- percent migration normalized to untreated control cells (100%) (HUVEC [2]; 150 nM flavopiridol): 25.08±1.79%
- tubular structures, VEGF control wells as 100% (HUVEC [3]; 50 nM flavopiridol, not statistically different from control): 114.7±7.17
- tubular structures, VEGF control wells as 100% (HUVEC [3]; 100 nM flavopiridol, not statistically different from control): 97.67±5.36
- tubular structures, VEGF control wells as 100% (HUVEC [3]; 150 nM flavopiridol, significantly reduced): 55.33±9.70
- invading cells as percent of untreated control (HUVEC [4]; 50 nM flavopiridol): 67.08%±6.50
- invading cells as percent of untreated control (HUVEC [4]; 100 nM flavopiridol): 59.74%±6.98
- invading cells as percent of untreated control (HUVEC [4]; 200 nM flavopiridol): 32.64%±8.58
- block of global transcription (global transcription): does not block global transcription
- safety and tolerability of the formulation in the eye [5]: safe and well-tolerated
